What is called melting point is the temperature, or range, at which the solid turns liquid.

36 compounds from patent publication US10273218B2, “BCL-3 inhibitors” (University College Cardiff Consultants Limited, priority 2014, dated 2019) can be followed below.

One series concerns human breast cancer MDA-MB-231 xenograft. Briefly: in vivo metastasis mouse Model 1 (seeding and early colonization of circulating tumour cells). On the set-up: species or system mice. To be noted: 3.5 mg/Kg intraperitoneal daily for 10 days; relative luminescence of thoracic region. Here is the method:
In all experiments, each compound was administered by intraperitoneally at 3.5 mg/kg.
One model (Model 1) studied the effect of the compound's ability to inhibit the seeding and early colonization of circulating tumour cells at distal sites, most commonly in the lungs and liver. Human tumour cell lines were injected into the bloodstream of recipient mice, followed by single daily intraperitoneal injections of the compound (3.5 mg/kg in 1% DMSO) for 10 consecutive days. Tumour burden was monitored longitudinally for up to 8 weeks in vivo by live luminescence imaging, and subsequently histology performed on affected organs at the end of the experiment.
Model 1 tested the effect of Bcl3i compounds to inhibit the seeding and early colonization of circulating tumour cells at distal sites, most commonly in the lungs and liver. Human tumour cell lines were injected into the bloodstream of recipient mice, followed by single daily intraperitoneal injections of Bcl3 inhibitor (3.5 mg/kg in 1% DMSO) for 10 consecutive days. Tumour burden was monitored longitudinally for up to 8 weeks in vivo by live luminescence imaging, and subsequently histology performed on affected organs at the end of the experiment.
The X axis represents the number of days after xenograft and the Y axis is the relative luminescence of the thoracic region by Xenon IVIS scanning of mice following injection of d-luciferin for 10 minutes.
MDA-MB-231 human breast cancer cells were used in each of the three xenograft models of metastatic breast cancer.
`CN1CCN(CCNC(=O)c2ccccc2NC(=O)c2ccccc2F)CC1` [Compound 49, 2-fluoro-N-(2-((2-(4-methylpiperazin-1-yl)ethyl)carbamoyl)phenyl)benzamide]: the “potency of effect in Model 1 relative to compound 28” value is recorded as “more potent effects than compound 28”.

Staying with this series, now noted: 3.5 mg/Kg intraperitoneal daily for 10 days; relative luminescence of thoracic region; versus controls and compound 12.
For the compound `COc1ccc(C(=O)Nc2cccc(F)c2C(=O)NCCN2CCOCC2)c(F)c1` [Compound 28], the “inhibition of metastasis / tumour burden in Model 1” value is reported as “significant reduction in tumour burden compared to controls but reduced effect compared to compound 12”.
The same measure, in the same setting: in the case of `CN1CCN(CCNC(=O)c2ccccc2NC(=O)c2ccccc2F)CC1` [Compound 49, 2-fluoro-N-(2-((2-(4-methylpiperazin-1-yl)ethyl)carbamoyl)phenyl)benzamide] it was “equivalent inhibition of metastasis in vivo to compound 12”.

System in the next series: not given
Experiment: not given
Settings: not given
In turn, `COc1ccc(C(=O)Nc2cccc(F)c2C(=O)NCCN2CCOCC2)c(F)c1` [Compound 28] showed a melting point of 105 to 107 °C.
The same measure, in the same setting: in the case of `CN1CCN(CCNC(=O)c2ccccc2NC(=O)c2ccccc2F)CC1` [Compound 49, 2-fluoro-N-(2-((2-(4-methylpiperazin-1-yl)ethyl)carbamoyl)phenyl)benzamide] it was 116 °C; in that of `O=C(NCCN1CCOCC1)c1ccccc1NC(=O)c1ccccc1C(F)(F)F` [Compound 9, N-(2-morpholinoethyl)-2-(2-(trifluoromethyl)benzamido) benzamide], 90 to 92 °C; in that of `COc1cccc(C(=O)NCCc2ccccc2)c1NC(=O)c1cccc(F)c1` [Compound 85, 2-(3-fluorobenzamido)-3-methoxy-N-phenethylbenzamide], 99 to 101 °C.
Still for that read-out and setting: to `O=C(Nc1cccc(F)c1C(=O)NCCN1CCOCC1)c1ccccc1F` [Compound 13, 2-fluoro-6-(2-fluorobenzamido)-N-(2-morpholinoethyl) benzamide] belongs 88 to 90 °C; to `COc1cc(C(=O)NCCCc2ccccc2)c(NC(=O)c2ccccc2F)c(OC)c1OC` [Compound 124, 2-(2-fluorobenzamido)-3,4,5-trimethoxy-N-(3-phenylpropyl)benzamide], 145 to 147 °C.
Still for that read-out and setting: in the case of `O=C(Nc1ccccc1C(=O)NCCN1CCNCC1)c1cc(F)cc(F)c1` [Compound 43, 3,5-difluoro-N-(2-((2-(piperazin-1-yl)ethyl)carbamoyl)phenyl) benzamide] it was 68 °C; in that of `CN1CCN(CCNC(=O)c2ccccc2NC(=O)c2ccccc2C(F)(F)F)CC1` [Compound 117], 124 to 126 °C; in that of `COc1cc(C(=O)NCCCN2CCOCC2)c(NC(=O)c2cccnc2)c(OC)c1OC` [Compound 132, N-(2,3,4-trimethoxy-6-((3-morpholinopropyl)carbamoyl)phenyl) nicotinamide], 120 to 122 °C.
For the compound `CN1CCN(CCNC(=O)c2ccccc2NC(=O)c2cccc(C(F)(F)F)c2)CC1` [Compound 114, N-(2-(4-methylpiperazin-1-yl)ethyl)-2-(3-(trifluoromethyl)benzamido) benzamide], the melting point lay within 101 to 103 °C.
On the same count and under the same terms, in the case of `CN1CCN(CCNC(=O)c2ccccc2NC(=O)c2cccnc2)CC1` [Compound 63, N-(2-((2-(4-methylpiperazin-1-yl)ethyl)carbamoyl)phenyl) nicotinamide] it was 99 °C.
On the same count and under the same terms, to `COc1cccc(C(=O)NCCN2CCOCC2)c1NC(=O)c1ccccc1F` [Compound 145, 2-(2-fluorobenzamido)-3-methoxy-N-(2-morpholinoethyl)benzamide] belongs 105 to 107 °C.
Still for that read-out and setting: in the case of `COc1ccc(C(=O)Nc2cc(OC)c(OC)c(OC)c2C(=O)NCCN2CCN(C)CC2)cc1` [Compound 62, 2,3,4-trimethoxy-6-(4-methoxybenzamido)-N-(2-(4-methylpiperazin-1-yl)ethyl)benzamide] it was 115 °C; in that of `COc1ccccc1C(=O)Nc1ccccc1C(=O)NCCN1CCN(C)CC1` [Compound 53, 2-methoxy-N-(2-((2-(4-methylpiperazin-1-yl)ethyl)carbamoyl)phenyl)benzamide], 111 °C.
`O=C(Nc1cccc(F)c1C(=O)NCCc1ccccc1)c1ccccc1F` [Compound 81, 2-fluoro-6-(2-fluorobenzamido)-N-phenethylbenzamide] registered a melting point of 96 to 98 °C.
Same read-out and setting: in the case of `O=C(Nc1ccccc1C(=O)NCCN1CCOCC1)c1cccnc1` [Compound 32, N-(2-((2-morpholinoethyl)carbamoyl)phenyl)nicotinamide] it was 85 °C; in that of `CN1CCN(CCNC(=O)c2ccccc2NC(=O)c2ccc(OC(F)(F)F)cc2F)CC1` [Compound 115, 2-fluoro-N-(2-((2-(4-methylpiperazin-1-yl)ethyl)carbamoyl)phenyl)-4-(trifluoromethoxy)benzamide], 69 to 71 °C; in that of `COc1cccc(C(=O)NCCc2ccccc2)c1NC(=O)c1ccccc1F` [Compound 84, 2-(2-fluorobenzamido)-3-methoxy-N-phenethylbenzamide], 130 to 132 °C.
Same read-out and setting: in the case of `COc1cc(NC(=O)c2ccccc2F)c(C(=O)NCCN2CCOCC2)c(OC)c1OC` [Compound 20, 6-(2-fluorobenzamido)-2,3,4-trimethoxy-N-(2-morpholinoethyl) benzamide] it was 141 °C; in that of `COc1cccc(C(=O)NCCCN2CCOCC2)c1NC(=O)c1ccc2ccccc2c1` [Compound 121, N-(2-methoxy-6-(3-morpholinopropylcarbamoyl)phenyl)-2-naphthamide], 140 to 142 °C.
On the same count and under the same terms, to `CN1CCN(CCNC(=O)c2ccccc2NC(=O)c2ccc(F)cc2F)CC1` [Compound 57, 2,4-difluoro-N-(2-((2-(4-methylpiperazin-1-yl)ethyl)carbamoyl)phenyl)benzamide] belongs 121 to 122 °C; to `COc1ccc(C(=O)Nc2c(OC)cccc2C(=O)NCCc2ccccc2)c(OC)c1` [Compound 93, 2-(2,4-dimethoxybenzamido)-3-methoxy-N-phenethylbenzamide], 132 to 134 °C.
On to `COc1cccc(C(=O)NCCN2CCOCC2)c1NC(=O)c1ccc(F)cc1` [Compound 18, 2-(4-fluorobenzamido)-3-methoxy-N-(2-morpholinoethyl) benzamide], for which the melting point lay in the range of 148 to 151 °C.
Still for that read-out and setting: to `COc1cccc(C(=O)Nc2ccccc2C(=O)NCCN2CCN(C)CC2)c1` [Compound 101, 2-(3-methoxybenzamido)-N-(2-(4-methylpiperazin-1-yl)ethyl)benzamide] belongs 113 to 115 °C; to `O=C(Nc1cc(F)ccc1C(=O)NCCN1CCOCC1)c1ccccc1F` [Compound 14, 4-fluoro-2-(2-fluorobenzamido)-N-(2-morpholinoethyl) benzamide], 104 to 106 °C.
Compound `COc1ccc(C(=O)Nc2ccncc2C(=O)NCCN2CCOCC2)cc1` [Compound 113, 4-(4-methoxybenzamido)-N-(2-morpholinoethyl)nicotinamide] registered a melting point of 105 to 107 °C.
On the same count and under the same terms, to `O=C(Nc1ccccc1C(=O)NCCN1CCNCC1)c1cccc(Cl)c1` [Compound 102, 2-(3-chlorobenzamido)-N-(2-(piperazin-1-yl)ethyl)benzamide] belongs 59 to 61 °C; to `O=C(Nc1ccccc1C(=O)NCCCN1CCOCC1)c1ccccc1F` [Compound 34, 2-fluoro-N-(2-((3-morpholinopropyl)carbamoyl)phenyl) benzamide], 76 to 79 °C; to `O=C(Nc1ncccc1C(=O)O)c1ccccc1F` [Compound 105, 2-(2-fluorobenzamido)nicotinic acid], more than 90 °C.
Same read-out and setting: in the case of `CN1CCN(CCNC(=O)c2ccccc2NC(=O)c2ccccc2)CC1` [Compound 47, 2-benzamido-N-(2-(4-methylpiperazin-1-yl)ethyl)benzamide] it was 80 °C; in that of `CN1CCN(CCCNC(=O)c2ccccc2NC(=O)c2ccc3ccccc3c2)CC1` [Compound 69, N-(2-((3-(4-methylpiperazin-1-yl)propyl)carbamoyl)phenyl)-2-naphthamide], 71 to 72 °C.
Same read-out and setting: to `COc1cccc(C(=O)NCCCc2ccccc2)c1NC(=O)c1ccc2ccccc2c1` [Compound 120, N-(2-methoxy-6-((3-phenylpropyl)carbamoyl)phenyl)-2-naphthamide] belongs 152 to 154 °C; to `COc1ccc(C(=O)Nc2ccncc2C(=O)NCCN2CCN(C)CC2)cc1` [Compound 116, 4-(4-methoxybenzamido)-N-(2-(4-methylpiperazin-1-yl)ethyl)nicotinamide], 83 to 85 °C.
As for `O=C(NCCN1CCNCC1)c1ccccc1NC(=O)c1c(F)cccc1F` [Compound 44, 2,6-difluoro-N-(2-((2-(piperazin-1-yl)ethyl)carbamoyl)phenyl) benzamide], the melting point amounted to 79 °C.
The same measure, in the same setting: in the case of `COc1ccc(C(=O)Nc2ccccc2C(=O)NCCN2CCN(C)CC2)cc1` [Compound 54, 2-(4-methoxybenzamido)-N-(2-(4-methylpiperazin-1-yl)ethyl) benzamide] it was 114 °C.
The same measure, in the same setting: in the case of `COc1ccc(C(=O)Nc2cccc(F)c2C(=O)NCCN2CCN(C)CC2)cc1` [Compound 109, 2-fluoro-6-(4-methoxybenzamido)-N-(2-(4-methylpiperazin-1-yl)ethyl)benzamide] it was 81 to 83 °C.
